# Test results reported in paper PMC11766601, “A Comparative Study of the In Vitro Intestinal Permeability of Pinnatoxins and Portimine” (Marine Drugs, 2025).
# Experiments:
# [1] = Toxin crossing and apparent permeability across Caco-2 cell monolayers (A to B), LC-MS/MS; assay type: in vitro ADME, human; conditions: human, Caco-2, A to B; for Papp at 2 h, 8 ng/mL / Papp at 6 h, 8 ng/mL: loaded 8 ng/mL; for Papp at 2 h, 16 ng/mL / Papp at 6 h, 16 ng/mL: loaded 16 ng/mL; for Papp at 2 h, 32 ng/mL / Papp at 6 h, 32 ng/mL: loaded 32 ng/mL
# Method: (§1) All experiments were performed with human intestinal Caco-2 cells (ATCC-HTB37), acquired from the American Type Culture Collection (ATCC; Manassas, VA, USA). Caco-2 cells originate from a colorectal adenocarcinoma, but upon reaching confluence, they differentiate and express the characteristics of enterocytes. The cells were cultivated in minimum essential medium containing 5.5 mM D-glucose, Earle’s salts, and 2 mM L-alanyl-glutamine (MEM GlutaMAX™, Gibco, Bromont, QC, Canada) supplemented with 10% fetal bovine serum (FBS, Gibco), 1% non-essential amino acids, 50 U/mL penicillin, and 50 μg/mL streptomycin (Gibco) under humidified conditions (37 °C, 5% CO2, 95% humidity). The cells were grown for 3–4 days up to 80% confluence before trypsinization and sub-culture. For the experiments, the cells were seeded in TRANSWELL® plates (12 wells, 0.4 µm pore size; Costar®, Corning Incorporated, Corning, NY, USA) at a density of 90,000 cells/cm^2. Prior to toxin treatment, highly differentiated Caco-2 cells were obtained after 24–26 days of culture, with medium renewal every 2–3 days. Passage numbers between 30 and 40 were used for experiments.
# (§2) PnTX-A, PnTX-G, PnTX-E, PnTX-H, and portimine stock solutions were prepared in methanol, while PnTX-F was provided in acetonitrile/acetic acid (50%/0.1%). For each toxin, the cells were incubated at 8, 16, and 32 ng/mL (diluted in HBSS) for 2 h, 6 h, and 24 h, with a final volume of 1.5% solvent. The controls were incubated with the cell culture medium containing the respective solvent of the toxin at 1.5%. Each experiment included three biological replicates. Two to three independent experiments were conducted.
# (§3) The apical and basolateral compartments were collected after 2, 6, and 24 h treatment time. Parts of the solutions that were used to load the apical compartments were also stored (T0) to take into account the real concentration and not the estimated concentration. All the samples were stored at −20 °C until LC/MS analysis.
# (§4) The LC-MS/MS analysis of toxins was implemented for the quantitative analysis of toxins. The LC system was an Agilent 1200 (Agilent Technologies, Santa Clara, CA, USA). The chromatographic separation was performed using a column Hypersil GOLD® C18 50 mm × 2.1 mm, 1.9 μm (Thermo Scientific, Waltham, MA, USA). Eluent A consisted of water, and eluent B of acetonitrile/water at a ratio of 95:5 (v/v), with both eluents containing 50 mM formic acid and 2 mM ammonium formate. The LC flow rate was 0.4 mL/min, and the gradient was programmed as follows: 10% B held for 0.5 min, 10–90% B in 5 min, 90% B held for 1 min, 90–10% B in 0.5 min, and 10% B held for 3.0 min, for a total run time of 10 min. The injection volume was 5 μL, while the column temperature was maintained at 40 °C. The column effluent was transferred via a divert valve (Valco Instruments Co., Inc., Houston, TX, USA), either to the mass spectrometer (between 1.7 and 5.5 min) or to waste.
# (§5) The detection system was constructed with an API 4000 triple quadrupole mass spectrometer (Sciex, Framingham, MA, USA) equipped with an ElectroSpray Ionization (ESI) source (Turbo V). The mass spectrometer was operated in positive ESI mode. The source temperature was set at 600 °C, and the spray voltage was 5500 V. Air was used as a nebulizer gas and an auxiliary gas, with a gas pressure of 40 and 60 psi, respectively. Meanwhile, the curtain gas and collision gas were nitrogen, with a gas pressure of 15 and 8 psi, respectively. The mass spectrometer was operated in multiple reaction monitoring mode (MRM). One transition was used for quantification (Q) and another as a qualifier transition (q). A mass resolution of 0.7 Da full width at half maximum (FWHD) was set on the first (Q1) and the third (Q3) quadrupoles. Instrument control and data were handled with Analyst software version 1.5.1 (Sciex, Framingham, MA, USA).
# (§6) The portimine and PnTX retention times varied between 2.7 and 4.4 min (Figure S1). […]
# Caco-2 cell monolayers [2] = experiment: as above; assay type: in vitro ADME, human; conditions: for % theoretical amount of toxin crossing the Caco-2 cell monolayers: relative to theoretical loaded concentration; for Percentage of toxin crossing the Caco-2 cell monolayers: A to B, relative to quantified T0; for permeability / oral bioavailability class from Caco-2 Papp: threshold Papp > 1.5 × 10^−6 cm·s^−1 = highly penetrative
# Method: as §1, §2, §3, §4, §5, §6
# Caco-2 cells = experiment: Trans-epithelial electrical resistance (TEER) of differentiated Caco-2 monolayers; assay type: cell-based, human; conditions: 24 h
# Method: as §1, §2
# Epithelial integrity was examined by measuring the TEER between the apical and basolateral compartments. After rinsing with a HBSS solution (HBSS, HEPES 5 mM, pH 7.4), the Caco-2 monolayers were equilibrated for 30 min at 37 °C with 300 and 1000 µL HBSS in the apical (A) and basolateral (B) chambers, respectively. Then, the content of the apical compartment was replaced with 500 µL HBSS-containing toxins. TEER was quantified with a Millipore Millicell Electrical Resistance System (ERS Millipore, EMD Millipore Corporation, Burlington, MA, USA). The mean value of two measurements per well before and after the treatment was calculated and multiplied by the surface of the insert to obtain Ω × cm^2. After blank subtraction, the results were presented as a percentage of the solvent control.
# cancer cells = conditions: observed by several methods; cited from earlier work
# mice [3] = conditions: cited from earlier work
# Caco-2 cell monolayers [4] = experiment: Lucifer Yellow paracellular permeability (barrier integrity); assay type: cell-based, human; conditions: 24 h
# Method: as §1, §2
# For the assay, both compartments of the insert system were washed with Hank’s balanced salt solution (HBSS). Then, 0.5 mL of 0.1 mg/mL Lucifer Yellow in HBSS buffer and 1 mL of pure HBSS buffer were added to the apical and basolateral compartments, respectively. After a 2 h incubation at 37 °C, the media of the basolateral compartments were collected and the fluorescence of each compartment was measured in triplicate (excitation: 405 nm, emission: 520 nm) with a FLUOstar Optima microplate reader (BMG Labtech, Ortenberg, Germany). After subtraction of the blank (HBSS), the permeability of the […] was calculated against the value obtained for pure LY and reported as % permeability.
# mice [5] = conditions: cited from earlier work; remark: listed apart in the source
# rats = system: rats; parameters: method as in PMID 34380275; conditions: six hours after gavage of rats with [H^3] 100 µg/kg; liver, kidney, spleen, brain regions; cited from earlier work
# [6] = parameters: method as in PMID 32246951; conditions: Anses 2020; cited from earlier work
Structure (SMILES),"Papp at 2 h, 8 ng/mL [1]","Papp at 2 h, 16 ng/mL [1]","Papp at 2 h, 32 ng/mL [1]","Papp at 6 h, 8 ng/mL [1]","Papp at 6 h, 16 ng/mL [1]","Papp at 6 h, 32 ng/mL [1]","% theoretical amount of toxin crossing the Caco-2 cell monolayers (Caco-2 cell monolayers [2]; 2 h, 8 ng/mL)","% theoretical amount of toxin crossing the Caco-2 cell monolayers (Caco-2 cell monolayers [2]; 2 h, 16 ng/mL)","% theoretical amount of toxin crossing the Caco-2 cell monolayers (Caco-2 cell monolayers [2]; 2 h, 32 ng/mL)","Percentage of toxin crossing the Caco-2 cell monolayers (Caco-2 cell monolayers [2]; 2 h, loaded 8 ng/mL)","Percentage of toxin crossing the Caco-2 cell monolayers (Caco-2 cell monolayers [2]; 2 h, loaded 16 ng/mL)","Percentage of toxin crossing the Caco-2 cell monolayers (Caco-2 cell monolayers [2]; 2 h, loaded 32 ng/mL)","% theoretical amount of toxin crossing the Caco-2 cell monolayers (Caco-2 cell monolayers [2]; 6 h, 8 ng/mL)","% theoretical amount of toxin crossing the Caco-2 cell monolayers (Caco-2 cell monolayers [2]; 6 h, 16 ng/mL)","% theoretical amount of toxin crossing the Caco-2 cell monolayers (Caco-2 cell monolayers [2]; 6 h, 32 ng/mL)","Percentage of toxin crossing the Caco-2 cell monolayers (Caco-2 cell monolayers [2]; 6 h, loaded 8 ng/mL)","Percentage of toxin crossing the Caco-2 cell monolayers (Caco-2 cell monolayers [2]; 6 h, loaded 16 ng/mL)","Percentage of toxin crossing the Caco-2 cell monolayers (Caco-2 cell monolayers [2]; 6 h, loaded 32 ng/mL)",permeability / oral bioavailability class from Caco-2 Papp (Caco-2 cell monolayers [2]),other results
"C=CC1=CC2C3O[C@]4(CCC(O4)[C@@H](C)C[C@@H](O)C3=O)C[C@H](O)C3=NCC[C@@]32CC1 (stereo partly shown) [Portimine, portimine]",5.72 ± 0.91 ×10⁻⁶ cm/s,9.6 ± 0.55 ×10⁻⁶ cm/s,14.4 ± 5.27 ×10⁻⁶ cm/s,15 ± 2.29 ×10⁻⁶ cm/s,19 ± 349 ×10⁻⁶ cm/s,24.5 ± 3.01 ×10⁻⁶ cm/s,8.50 ± 1.25%,13.33 ± 1.69%,20.73 ± 7.28%,9.23 ± 1.46%,15.48 ± 0.89%,23.25 ± 6.88%,22.33 ± 3.36%,26.08 ± 3.00%,34.60 ± 4.41%,24.23 ± 3.69%,30.63 ± 5.62%,39.45 ± 4.86%,high oral bioavailability,"mechanism of transport from the apical to the basolateral compartment (Caco-2 cell monolayers [2]; inferred from concentration-dependent Papp): passive diffusion; TEER (Caco-2 cells; all of the concentrations (8, 16, 32 ng/mL)): 10.02 ± 0.96 % of control value; apoptosis induction (cancer cells): induces apoptosis; acute intraperitoneal toxicity (mice [3]): not very toxic; effect on LY permeability (Caco-2 cell monolayers [4]; all concentrations (8, 16, 32 ng/mL)): significant increase"
"C=CC1=CC2C3OC4(CC5CCCC6(CCC7(OC(CCC7(C)O)CC(=C)CCCC7=NCC(C)C(C)CC72CC1)O6)O5)CC(C)C(O)C3O4 (stereo not shown) [PnTX-G, Pinnatoxin G]",9.69 ± 3.25 ×10⁻⁶ cm/s,14.4 ± 2.7 ×10⁻⁶ cm/s,14.3 ± 3.45 ×10⁻⁶ cm/s,21.4 ± 5.82 ×10⁻⁶ cm/s,22.8 ± 3.26 ×10⁻⁶ cm/s,26.9 ± 3.82 ×10⁻⁶ cm/s,6.83 ± 1.04%,8.37 ± 1.19%,8.64 ± 0.53%,15.62 ± 5.24%,23.32 ± 4.36%,23.07 ± 5.56%,15.17 ± 0.58%,13.25 ± 1.30%,16.58 ± 2.86%,34.43 ± 9.39%,36.83 ± 5.26%,43.41 ± 6.15%,high oral bioavailability,"effect on TEER (Caco-2 cells; 16 and 32 ng/mL): slight, but non-significant, decrease; effect on the small intestine (mice [5]; mice orally treated with 300 μg/kg and above, villous atrophy, focal degeneration of epithelial cells): alteration of the small intestine; onset of toxicity after oral exposure (mice [5]; oral exposure to a certain dose): within one hour; tissue distribution of radioactivity (rats): radioactivity was distributed in the peripheral organs; provisional acute health-based guidance value [6]: 0.13 μg PnTX-G/kg body weight per day; effect on passage of LY (Caco-2 cell monolayers [4]): lower effect"
